Test results taken from ChEMBL document CHEMBL1201862, “PubChem BioAssay data set” (2004).
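Results reflect a 48-hour exposure of cells in 96-well plates to compound at five concentrations. GI50: concentration for 50% inhibition of growth.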 Calls of active or inactive are those of the source. No stated cut-off is given here; in the data, active = GI50 up to about 1.1 µM and inactive = higher.

Experiments:
Test in all cases: growth of human tumour cells (NCI), 48 h
[1] = tested on: A498
[2] = tested on: SK-OV-3
[3] = tested on: T47D
[4] = tested on: HCT-116
[5] = tested on: NCI-H23
[6] = tested on: HCT-15
[7] = tested on: M14
[8] = tested on: BT-549
[9] = tested on: MDA-MB-435
[10] = tested on: K562
[11] = tested on: HT-29
[12] = tested on: SK-MEL-2
[13] = tested on: OVCAR-8
[14] = tested on: OVCAR-3
[15] = tested on: IGROV-1
[16] = tested on: DMS-273
[17] = tested on: RPMI-8226
[18] = tested on: 786-0
[19] = tested on: LOX IMVI
[20] = tested on: UO-31

Row | SMILES | GI50 [1] | GI50 [2] | GI50 [3] | GI50 [4] | GI50 [5] | GI50 [6] [µM] | GI50 [7] | GI50 [8] | GI50 [9] | GI50 [10] | GI50 [11] | GI50 [12] | GI50 [13] | GI50 [14] | GI50 [15] | GI50 [16] | GI50 [17] | GI50 [18] | GI50 [19] | GI50 [20]
1 | CN1C(=O)CC2(C)c3cc(O)ccc3N(C)C12 (stereo not given) | 43 µM (inactive) | > 95.3 µM (inactive) | 31.8 µM (inactive) | 19.9 µM (inactive) | 42.3 µM (inactive) | 36 | 27.2 µM (inactive) | 16.9 µM (inactive) | 13.6 µM (inactive) | 18.5 µM (inactive) | 30.5 µM (inactive) | 41.5 µM (inactive) | 30.8 µM (inactive) | 19.6 µM (inactive) | 46.6 µM (inactive) | > 100 µM (inactive) | 31 µM (inactive) | 15 µM (inactive) | 17.1 µM (inactive) | > 71.8 µM (inactive)
2 | CC[C@@]1(O)C(=O)OCc2c1cc1n(c2=O)Cc2cc3cc4c(cc3nc2-1)OCO4 | < 0.0143 µM (active) | 0.002 µM (active) | 0.0104 µM (active) | 0.00167 µM (active) | 0.00114 µM (active) | 0.0181 | < 0.001 µM (active) | 0.0118 µM (active) | 0.0149 µM (active) | 0.00304 µM (active) | 0.00472 µM (active) | 0.0224 µM (active) | 0.00189 µM (active) | 0.0551 µM (active) | 0.00948 µM (active) | < 0.001 µM (active) | 0.0281 µM (active) | < 0.001 µM (active) | 0.00135 µM (active) | 0.00116 µM (active)
3 | Nc1cc2[nH]cnc2c(=O)[nH]1 [DEZAGUANINE] | 63.5 µM (inactive) | 5.12 µM (inactive) | 89.1 µM (inactive) | 16.6 µM (inactive) | 31.6 µM (inactive) | 19.3 | 45.6 µM (inactive) | > 123 µM (inactive) | 14.3 µM (inactive) | 12.3 µM (inactive) | 21.5 µM (inactive) | 5.96 µM (inactive) | 40.2 µM (inactive) | 11 µM (inactive) | 23.1 µM (inactive) | 8.26 µM (inactive) | 19.3 µM (inactive) | 19.4 µM (inactive) | 10.5 µM (inactive) | 32.3 µM (inactive)
